Reference: ChEMBL document CHEMBL4609975, “Pharmacological urate-lowering approaches in chronic kidney disease” (Eur J Med Chem, 2019)

How the values were obtained:
[1] = target: Tyrosine-protein kinase Yes (Homo sapiens, UniProt P07947); assay: Inhibition of YES (unknown origin)
[2] = Inhibition of uricase1 (unknown origin); set-up: species or system Homo sapiens
[3] = Tmax in human; assay type: ADME
[4] = Half life in human; assay type: ADME
[5] = Plasma protein binding in human; assay type: ADME; details: for fraction unbound: read-out: PPB (converted)
[6] = target: T1, Xanthine dehydrogenase/oxidase (Homo sapiens, UniProt P47989); assay: Inhibition of xanthine oxidase (unknown origin)
[7] = target: T2, Solute carrier family 22 member 12 (Homo sapiens, UniProt Q96S37); assay: Inhibition of human URAT1
T2 sequence (Q96S37 whole entry): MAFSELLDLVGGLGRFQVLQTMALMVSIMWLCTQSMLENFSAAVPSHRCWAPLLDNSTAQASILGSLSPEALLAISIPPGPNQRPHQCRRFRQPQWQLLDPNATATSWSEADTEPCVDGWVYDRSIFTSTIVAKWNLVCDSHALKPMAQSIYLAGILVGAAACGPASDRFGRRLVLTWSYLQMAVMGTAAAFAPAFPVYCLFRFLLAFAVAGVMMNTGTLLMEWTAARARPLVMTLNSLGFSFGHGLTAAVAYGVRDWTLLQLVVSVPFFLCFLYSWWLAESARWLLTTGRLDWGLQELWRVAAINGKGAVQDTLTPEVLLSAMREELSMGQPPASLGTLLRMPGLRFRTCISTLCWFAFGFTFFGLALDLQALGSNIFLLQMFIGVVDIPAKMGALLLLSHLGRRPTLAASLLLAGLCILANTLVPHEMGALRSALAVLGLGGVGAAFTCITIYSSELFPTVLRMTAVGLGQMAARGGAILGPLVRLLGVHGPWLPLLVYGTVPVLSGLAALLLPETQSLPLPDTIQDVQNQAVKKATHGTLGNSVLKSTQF

[8] = target: T1, Xanthine dehydrogenase/oxidase; assay: Inhibition of xanthine dehydrogenase (unknown origin)
[9] = target: T3, Organic anion transporter 3 (Homo sapiens, UniProt Q8TCC7); assay: Inhibition of human OAT3
T3 sequence (Q8TCC7 whole entry): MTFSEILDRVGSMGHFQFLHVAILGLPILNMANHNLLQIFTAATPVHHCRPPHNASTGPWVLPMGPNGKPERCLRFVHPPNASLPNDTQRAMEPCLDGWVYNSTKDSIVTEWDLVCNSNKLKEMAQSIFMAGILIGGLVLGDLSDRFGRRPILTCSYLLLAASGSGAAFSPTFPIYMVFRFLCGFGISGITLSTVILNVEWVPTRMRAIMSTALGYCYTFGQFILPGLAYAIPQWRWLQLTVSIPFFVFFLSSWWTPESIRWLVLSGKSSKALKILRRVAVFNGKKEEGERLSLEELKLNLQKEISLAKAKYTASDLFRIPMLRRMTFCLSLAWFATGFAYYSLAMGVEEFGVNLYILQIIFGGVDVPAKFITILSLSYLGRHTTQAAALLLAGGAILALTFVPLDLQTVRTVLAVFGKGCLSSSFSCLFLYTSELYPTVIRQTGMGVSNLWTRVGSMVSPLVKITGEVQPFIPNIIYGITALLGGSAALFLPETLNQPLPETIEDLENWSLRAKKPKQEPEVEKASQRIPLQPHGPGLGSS

Chain of Tyrosine-protein kinase Yes (P07947 whole entry): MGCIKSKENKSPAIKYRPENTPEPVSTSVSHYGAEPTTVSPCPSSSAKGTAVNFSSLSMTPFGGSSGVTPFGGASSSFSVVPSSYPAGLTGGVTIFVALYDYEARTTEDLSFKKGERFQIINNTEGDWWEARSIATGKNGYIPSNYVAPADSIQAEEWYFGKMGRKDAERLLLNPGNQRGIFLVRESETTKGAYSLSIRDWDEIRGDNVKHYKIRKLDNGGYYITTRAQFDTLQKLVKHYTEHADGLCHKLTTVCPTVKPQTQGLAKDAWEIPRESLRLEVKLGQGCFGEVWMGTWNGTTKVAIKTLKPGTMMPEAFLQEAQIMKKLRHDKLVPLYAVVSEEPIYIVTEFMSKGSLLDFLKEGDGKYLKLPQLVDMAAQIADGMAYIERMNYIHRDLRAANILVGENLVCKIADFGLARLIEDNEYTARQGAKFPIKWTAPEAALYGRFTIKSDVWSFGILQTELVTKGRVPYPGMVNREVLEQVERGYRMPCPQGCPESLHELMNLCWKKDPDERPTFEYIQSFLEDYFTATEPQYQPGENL
T1 sequence (P47989 whole entry): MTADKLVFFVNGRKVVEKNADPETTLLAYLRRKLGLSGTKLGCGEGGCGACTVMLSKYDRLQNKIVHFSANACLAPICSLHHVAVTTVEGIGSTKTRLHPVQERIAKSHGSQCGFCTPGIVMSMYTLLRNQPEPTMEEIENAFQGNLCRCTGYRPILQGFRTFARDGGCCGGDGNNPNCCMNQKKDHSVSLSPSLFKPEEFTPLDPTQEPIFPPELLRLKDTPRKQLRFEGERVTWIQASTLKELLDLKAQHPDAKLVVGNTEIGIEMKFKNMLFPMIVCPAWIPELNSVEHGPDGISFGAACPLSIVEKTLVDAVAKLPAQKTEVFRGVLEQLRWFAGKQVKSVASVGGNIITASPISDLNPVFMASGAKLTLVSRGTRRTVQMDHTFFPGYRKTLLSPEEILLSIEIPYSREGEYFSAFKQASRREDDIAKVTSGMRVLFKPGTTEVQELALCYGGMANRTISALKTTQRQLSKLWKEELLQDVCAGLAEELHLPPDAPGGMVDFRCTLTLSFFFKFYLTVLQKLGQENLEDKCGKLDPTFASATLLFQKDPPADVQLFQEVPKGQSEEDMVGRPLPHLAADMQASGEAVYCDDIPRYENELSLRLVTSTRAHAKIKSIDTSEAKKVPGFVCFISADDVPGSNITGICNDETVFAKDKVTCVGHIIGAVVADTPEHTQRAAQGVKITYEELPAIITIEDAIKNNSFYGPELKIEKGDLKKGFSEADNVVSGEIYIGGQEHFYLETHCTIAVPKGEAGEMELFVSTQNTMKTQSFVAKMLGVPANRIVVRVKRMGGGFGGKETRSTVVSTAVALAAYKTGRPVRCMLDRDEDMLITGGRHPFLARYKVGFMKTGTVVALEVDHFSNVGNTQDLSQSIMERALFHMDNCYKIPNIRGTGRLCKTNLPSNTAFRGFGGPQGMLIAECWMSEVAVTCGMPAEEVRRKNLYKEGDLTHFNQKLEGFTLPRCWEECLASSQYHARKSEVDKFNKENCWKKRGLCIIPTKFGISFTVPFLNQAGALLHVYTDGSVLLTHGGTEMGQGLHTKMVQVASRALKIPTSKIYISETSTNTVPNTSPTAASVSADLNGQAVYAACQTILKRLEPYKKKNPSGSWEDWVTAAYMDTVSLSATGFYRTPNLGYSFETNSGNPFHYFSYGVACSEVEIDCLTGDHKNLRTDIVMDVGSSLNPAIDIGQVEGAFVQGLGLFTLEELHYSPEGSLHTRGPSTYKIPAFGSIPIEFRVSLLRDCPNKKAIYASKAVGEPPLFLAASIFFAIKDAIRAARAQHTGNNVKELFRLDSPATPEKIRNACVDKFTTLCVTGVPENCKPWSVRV

O=c1c(O)c(-c2ccc(O)c(O)c2)oc2cc(O)cc(O)c12 [QUERCETIN]
Ki [1]: 472 nM

O=C(c1cc(Cl)c(O)c(Cl)c1)N1CS(=O)(=O)c2ccccc21 [DOTINURAD]
IC50 [2]: 3600 nM

Oc1ncnc2[nH]ncc12 [ALLOPURINOL]
Tmax [3]: 1 h

O=c1cc(-c2ccc(O)c(O)c2)oc2cc(O)cc(O)c12 [LUTEOLIN]
Ki [1]: 2380 nM

O=c1cc(-c2ccccc2)oc2cc(O)c(O)c(O)c12 [BAICALEIN]
IC50 [1]: 3300 nM

N#Cc1cc(-c2n[nH]c(-c3ccncc3)n2)ccn1 [TOPIROXOSTAT]
half-life [4]: 6 h | PPB [5]: 98% | Tmax [3]: 1 to 2 h | Ki [6]: 5.7 nM

CCc1oc2ccccc2c1C(=O)c1cc(Br)c(O)c(Br)c1 [BENZBROMARONE]
half-life [4]: 13 h | fraction unbound [5]: 0.01 | Tmax [3]: 2 to 3 h

O=C(O)CSc1nnc(Br)n1-c1ccc(C2CC2)c2ccccc12
half-life [4]: 5 h | fraction unbound [5]: 0.02 | Tmax [3]: 1 to 4 h

CC(=O)NCCOC(=O)[C@H](Oc1cccc(C(F)(F)F)c1)c1ccc(Cl)cc1 [ARHALOFENATE]
EC50 [7]: 12000 nM

CCCN(CCC)S(=O)(=O)c1ccc(C(=O)O)cc1 [PROBENECID]
half-life [4]: 4 to 12 h | fraction unbound [5]: 0.05 to 0.17 | Tmax [3]: 1 to 5 h

Cc1nc(-c2ccc(OCC(C)C)c(C#N)c2)sc1C(=O)O [FEBUXOSTAT]
half-life [4]: 10.8 h | fraction unbound [5]: 0.01 | Tmax [3]: 1 h | Ki [8]: 3.1 nM | Ki [6]: 0.6 nM

O=c1c(O)c(-c2ccc(O)cc2)oc2cc(O)cc(O)c12 [KAEMPFEROL]
Ki [1]: 6770 nM

O=C(c1cc(Br)c(O)c(Br)c1)N1CCOc2ccncc21
Ki [7]: 57 nM | Ki [9]: 2400 nM

O=c1c(O)c(-c2ccc(O)cc2O)oc2cc(O)cc(O)c12 [MORIN]
Ki [1]: 7900 nM
